From patent publication US20260234164A1, “BIPHENYL COMPOUND AS IMMUNOMODULATOR, PREPARATION METHOD THEREFOR AND USE THEREOF” (SHENZHEN CHIPSCREEN BIOSCIENCES CO., LTD., priority 2021, published 2026)

Biological target: T1, PD-1/PD-L1 binding (Homo sapiens, UniProt Q9NZQ7)
T1 construct: purchased Sino Biological Inc. 10084-H02H-100 (PD-L1-Fc); 10377-H08H-50 (His-PD-1)
Experiment: HTRF inhibition of PD-1/PD-L1 binding in vitro
Settings: His-PD-1 100 nM, PD-L1-Fc 2 nM, read-out: IC50 inhibiting PD-1/PD-L1 binding in vitro
Source text: Homogeneous Time-Resolved Fluorescence (HTRF): This method used the recombinant human PD-L1 protein fused to express the hFc tag and the recombinant human PD-1 protein fused to express the His tag, both of which were interacting ligands and receptors. When the anti-hFc antibody containing Eu element chelation marker and the anti-His antibody labeled with XL665 fluorescein were bound with the above two corresponding labels, and excited by a laser with a wavelength of 320 nm, the ligand-receptor binding enabled the energy to be transferred from the Eu element to the XL665 fluorescein, which was excited to emit light at a wavelength of 665 nm. However, when an inhibitor of the interaction between PD-L1 and PD-1 was added, the binding of the ligand to the receptor was destroyed, so that the distance between Eu and XL665 was far away, the energy cannot be transferred, and XL665 would not be excited.
Recombinant human PD-1 protein with His tag (His-PD-1 protein, Cat #: 10377-H08H-50), and recombinant human PD-L1-Fc fusion protein (PD-L1-Fc fusion protein, Cat #: 10084-H02H-100) were purchased from Sino Biological Inc., […] and anti-His-XL665 antibody were purchased from Cisbio Company, and other related reagents such as dilution buffer (Diluent buffer 5, Cat #: 62DL5DDC), detection buffer (PPI-Europium detection buffer, Cat #: 61DB9RDF) were purchased from Cisbio Company. Fluorescence detection instrument Tecan (Spark 10 M) was purchased from Switzerland Tecan Company.
(1) Experimental preparation: The test compound was diluted with dilution buffer into different concentration gradients (the highest final concentration in 20 μL final reaction system was 10 μM), His-PD-1 protein was diluted to 800 nM (the final concentration in 20 μL final reaction system was 100 nM), and the PD-L1-Fc fusion protein was diluted to 16 nM (final concentration was 2 nM). The anti-His-XL665 antibody and anti-hFc-Eu^3+ antibody were respectively diluted 20 times and 100 times using the detection buffer according to the reagent requirements.
(2) 5 μL of test compound, 2.5 μL of PD-L1-Fc fusion protein and 2.5 μL of His-PD-1 protein solution were mixed, and incubated at room temperature for 15 min. Then the system was added with 5 μL of anti-His-XL665 antibody and 5 μL of anti-hFc-Eu^3+ antibody, incubated for another 3 h, and then detected.
(3) When detecting the reaction, a control group was also provided, including a 0% inhibition positive control without adding test compounds and a 100% inhibition negative control without adding PD-1 protein. All detections were performed with duplicates.
(4) The fluorescence signal of each well was measured using a fluorescence detector Tecan (Spark 10M) at an excitation wavelength of 320 nm, and emission wavelengths of 620 nm and 665 nm, respectively. The intensity of the mutual binding of PD-1 and PD-L1 referred to the ratio of fluorescence signals Em665/Em620.
(5) The binding inhibition rate of the test compound was calculated as follows: Inhibition rate (%)=[1−(Fluorescence signal ratio of detection well-fluorescence signal ratio of 100% inhibition negative control)]/(fluorescence signal ratio of 0% inhibition positive control-fluorescence signal ratio of 100% inhibition negative control)×100%. After calculating the inhibition rate on PD-1/PD-L1 binding of the test compounds with different concentration gradients, the 50% inhibitory concentration (IC50) was calculated.

T1 sequence (Q9NZQ7 19-239 limits assumed): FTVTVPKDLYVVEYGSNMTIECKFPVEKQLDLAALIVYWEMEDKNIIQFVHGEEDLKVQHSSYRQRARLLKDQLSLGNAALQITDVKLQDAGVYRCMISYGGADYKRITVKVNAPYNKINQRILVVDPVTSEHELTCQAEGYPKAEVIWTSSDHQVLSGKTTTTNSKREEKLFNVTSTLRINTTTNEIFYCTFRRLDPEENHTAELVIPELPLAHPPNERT

Row | SMILES | IC50 [nM]
1 | [2H]c1c([2H])c(NC(=O)c2nc3c(n2C)CCN(CCC24CCC(COC([2H])([2H])[2H])(CC2)C4)C3)c(F)c(-c2c([2H])c([2H])c([2H])c(NC(=O)c3nc4c(n3C)CCN(CCC35CCC(C(=O)O)(CC3)C5)C4)c2Cl)c1[2H] (single isomer, unassigned) [Compound I-14, 4-(2-(2-((2-chloro-2′-fluoro-3′-(5-(2-(4-((methoxy-d3)methyl)bicyclo[2.2.1]heptane-1-y 1)ethyl)-1-methyl-4,5,6,7-tetrahydro-1H-imidazo[4,5-c]pyridine-2-carboxamido)-[1,1′-biphenyl]-3-yl-4,4′,5,5′,6,6′-d6)carbamoyl)-1-methyl-1,4,6,7-tetrahydro-5H-imidazo[4,5-c]pyridin-5-yl)ethyl)bicyclo[2.2.1]heptane-1-carboxylic acid] | 0.51
2 | [2H]C([2H])([2H])OCC12CCC(CCN3CCc4c(nc(C(=O)Nc5cccc(-c6cccc(NC(=O)c7nc8c(n7C)CCN(CCC79CCC(C(=O)O)(CC7)C9)C8)c6C)c5Cl)n4C)C3)(CC1)C2 [Compound I-3, 4-(2-(2-((2′-chloro-3′-(5-(2-(4-((methoxy-d3)methyl)bicyclo[2.2.1]heptane-1-yl)ethyl)-1-methyl-4,5,6,7-tetrahydro-1H-imidazo[4,5-c]pyridine-2-carboxamido)-2-methyl-[1,1′-biphenyl]-3-yl)carbamoyl)-1-methyl-1,4,6,7-tetrahydro-5H-imidazo[4,5-c]pyridin-5-yl)ethyl)bicyclo[2.2.1]heptane-1-carboxylic acid] | 2.9
3 | [2H]C([2H])([2H])n1c(C(=O)Nc2cccc(-c3cccc(NC(=O)c4nc5c(n4C([2H])([2H])[2H])CCN(CCC46CCC(C(=O)O)(CC4)C6)C5)c3Cl)c2C)nc2c1CCN(CCC13CCC(COC)(CC1)C3)C2 [Compound I-10, 4-(2-(2-((2-chloro-3′-(5-(2-(4-(methoxymethyl)bicyclo[2.2.1]heptane-1-yl)ethyl)-1-(methyl-d3)-4,5,6,7-tetrahydro-1H-imidazo[4,5-c]pyridine-2-carboxamido)-2′-methyl-[1,1′-biphenyl]-3-yl)carbamoyl)-1-(methyl-d3)-1,4,6,7-tetrahydro-5H-imidazo[4,5-c]pyridin-5-yl)ethyl)bicyclo[2.2.1]heptane-1-carboxylic acid] | 3.59
4 | [2H]C([2H])([2H])n1c(C(=O)Nc2cccc(-c3cccc(NC(=O)c4nc5c(n4C([2H])([2H])[2H])CCN(CCC46CCC(C(=O)O)(CC4)C6)C5)c3Cl)c2Cl)nc2c1CCN(CCC13CCC(COC)(CC1)C3)C2 [Compound I-6, 4-(2-(2-((2,2′-dichloro-3′-(5-(2-(4-((methoxy)methyl)bicyclo[2.2.1]heptane-1-yl)ethyl)-1-(methyl-d3)-4,5,6,7-tetrahydro-1H-imidazo[4,5-c]pyridine-2-carboxamido)-[1,1′-biphenyl]-3-yl)carbamoyl)-1-(methyl-d3)-1,4,6,7-tetrahydro-5H-imidazo[4,5-c]pyridin-5-yl)ethyl)bicyclo[2.2.1]heptane-1-carboxylic acid] | 1
5 | [2H]C([2H])([2H])OCC12CCC(CCN3CCc4c(nc(C(=O)Nc5cccc(-c6cccc(NC(=O)c7nc8c(n7C)CCN(CCC79CCC(C(=O)O)(CC7)C9)C8)c6Cl)c5C)n4C)C3)(CC1)C2 [Compound I-4, 4-(2-(2-((2-chloro-3′-(5-(2-(4-((methoxy-d3)methyl)bicyclo[2.2.1]heptane-1-yl)ethyl)-1-methyl-4,5,6,7-tetrahydro-1H-imidazo[4,5-c]pyridine-2-carboxamido)-2′-methyl-[1,1′-biphenyl]-3-yl)carbamoyl)-1-methyl-1,4,6,7-tetrahydro-5H-imidazo[4,5-c]pyridin-5-yl)ethyl)bicyclo[2.2.1]heptane-1-carboxylic acid] | 2.8
